Test results: patent US4210636A, “Antisecretory polypeptides” (American Home Products Corporation, priority 1978, dated 1980)
Bridge positions count the residues as written; N and C are the ends. Square brackets hold non-standard residues; d marks the D form. Peptide text beside a SMILES is read from it. Mpa = O=C(O)CCS

Columns and labels:
gastric acid secretion = settings: dose as high as 2 μm/Kg, s.c.; cited from earlier work
insulin secretion = assay: In vivo insulin secretion test
Excerpt: (§1) The potency of each compound is reported at the end of each example illustrating its production. […] In addition, the maximum dose employed to evaluate control of growth hormone, insulin and glucagon secretion is reported.

[1] = tested on: gastric secretion (total gastric volume, hydrogen ion secretion, hydrogen ion concentration); assay: Anti-secretory activity in pylorus-ligated (Shay) rat, s.c.; assay type: in vivo; settings: for hydrogen ion secretion / total gastric volume: at the reported potency dose (IV 26.3 mg/kg; V and VI 4.40 mg/kg); for Antisecretory potency: lowest dose administered at which two of the three parameters (total gastric volume, hydrogen ion secretion, hydrogen ion concentration) were significantly decreased: pylorus-ligated male Charles River rats, 4 hours after ligation
Description: Each of the polypeptides of this invention was tested and found active parenterally (s.c.) in the scientifically recognized, standard test for anti-secretory activity which involves the following procedure in which male Charles River rats weighing 190-260 grams are deprived of food but not water for eighteen hours prior to use. Water is withheld during the actual experiment. The rats are weighed, anesthetized with ether and the pylorus is ligated according to the method of Shay et al., Gastroenterology, 26, 906-913 (1954). Treatment or vehicle control is then administered subcutaneously (s.c.). The rats are housed two per cage and sacrificed with CO2 four hours after ligation. The stomachs are removed, rinsed, and contents emptied into a graduated centrifuge tube. The tubes are centrifuged for twenty minutes at two thousand revolutions per minute and the volume of gastric juice is recorded. Any sample which is obviously contaminated with feces, food or blood is eliminated. An aliquot of each sample is frozen for later analysis of pepsin. The pH is measured and one milliliter of gastric juice is titrated with 0.1 N NaOH to a pH of 7.0-7.4. The data are analyzed by analysis of variance and, using the pooled error variance, t-comparisons are made between the groups.
as §1

growth hormone secretion = assay: In vivo growth hormone secretion test
Excerpt: as §1

glucagon secretion = assay: In vivo glucagon secretion test
Excerpt: as §1

Compound | effect on gastric acid secretion (gastric acid secretion) | Insulin secretion not inhibited at highest dose tested (insulin secretion) | hydrogen ion secretion ([1]; pylorus-ligated rat) | total gastric volume ([1]; pylorus-ligated rat) | Antisecretory potency: lowest dose administered at which two of the three parameters (total gastric volume, hydrogen ion secretion, hydrogen ion concentration) were significantly decreased [1] | Growth hormone secretion not inhibited at highest dose tested (growth hormone secretion) | Glucagon secretion not inhibited at highest dose tested (glucagon secretion) | Dose that effectively inhibits secretion of insulin (insulin secretion; reference) | Dose that effectively inhibits secretion of growth hormone (growth hormone secretion; reference) | Dose that effectively inhibits secretion of glucagon (glucagon secretion; reference) | pH (gastric juice) ([1]; at 4.40 mg/kg, pylorus-ligated rat)
D-Lys^9 -SRIF | no appreciable effect |  |  |  |  |  |  |  |  |  | 
C[C@@H]1NC(=O)[C@H](CCCCN)NC(=O)[C@@H](N)CSSC[C@@H](C(=O)O)NC(=O)[C@H](CO)NC(=O)[C@H]([C@@H](C)O)NC(=O)[C@H](Cc2ccccc2)NC(=O)[C@H]([C@@H](C)O)NC(=O)[C@H](CCCCN)NC(=O)[C@H](Cc2c[nH]c3ccccc23)NC(=O)[C@H](Cc2ccccc2)NC(=O)[C@H](CO)NC1=O [IV, L-Cysteinyl-L-lysyl-L alanyl-L-seryl-L-phenylalanyl-L-tryptophyl-L-lysyl-L-threonyl-L-phenylalanyl-L-threonyl-L-seryl-L-cysteine cyclic (1→12) disulfide] (H-CKASFWKTFTSC-OH; disulfide 1-12) |  | > 3.10 mg/kg | significantly reduced | significantly reduced | 26.3 mg/kg | > 3.10 mg/kg | > 3.10 mg/kg |  |  |  | 
C[C@H](N)C(=O)NCC(=O)N[C@H]1CSSC[C@@H](C(=O)O)NC(=O)[C@H](CO)NC(=O)[C@H]([C@@H](C)O)NC(=O)[C@H](Cc2ccccc2)NC(=O)[C@H]([C@@H](C)O)NC(=O)[C@H](CCCCN)NC(=O)[C@H](Cc2c[nH]c3ccccc23)NC(=O)[C@H](Cc2ccccc2)NC(=O)[C@H](Cc2ccccc2)NC(=O)[C@H](CC(N)=O)NC(=O)[C@H](CCCCN)NC1=O [Somatostatin, reference compound] |  |  |  |  |  |  |  | about 10 micrograms per kilogram | about 10 micrograms per kilogram | about 10 micrograms per kilogram | 
C[C@@H](O)[C@@H]1NC(=O)[C@H](Cc2ccccc2)NC(=O)[C@H]([C@@H](C)O)NC(=O)[C@H](CCCCN)NC(=O)[C@H](Cc2c[nH]c3ccccc23)NC(=O)[C@H](Cc2ccccc2)NC(=O)[C@H](Cc2ccccc2)NC(=O)[C@H](CC(N)=O)NC(=O)CCSSC[C@@H](C(=O)O)NC(=O)[C@H](CO)NC1=O [V, β-Mercaptopropionyl-L-asparaginyl-L-phenylalanyl-L-phenylalanyl-L-tryptophyl-L-lysyl-L-threonyl-L-phenylalanyl-L-threonyl-L-seryl-L-cysteine cyclic (1→11) disulfide] ([Mpa]NFFWKTFTSC-OH; disulfide 1-11) |  | > 1.90 mg/kg | significantly reduced | significantly reduced | 4.40 mg/kg | > 1.90 mg/kg | > 1.90 mg/kg |  |  |  | 
CSCC[C@@H]1NC(=O)[C@H](Cc2ccccc2)NC(=O)[C@H](CC(N)=O)NC(=O)[C@H](CCCCN)NC(=O)[C@@H](NC(=O)CNC(=O)[C@H](C)N)CSSC[C@@H](C(=O)O)NC(=O)[C@H](CO)NC(=O)[C@H]([C@@H](C)O)NC(=O)[C@H](Cc2ccccc2)NC(=O)[C@H]([C@@H](C)O)NC(=O)[C@H](CCCCN)NC(=O)[C@H](Cc2c[nH]c3ccccc23)NC1=O [VI, L-Alanyl-glycyl-L-cysteinyl-L-lysyl-L-asparaginyl-L-phenylalanyl-L-methionyl-L-tryptophyl-L-lysyl-L-threonyl-L-phenylalanyl-L-threonyl-L-seryl-L-cystein cyclic (3→14) disulfide] (H-AGCKNFMWKTFTSC-OH; disulfide 3-14) |  | > 1.0 mg/kg | significantly reduced | significantly reduced | 4.40 mg/kg | > 1.0 mg/kg | > 1.0 mg/kg |  |  |  | significantly reduced
